Results: US11667621B2, “Antiestrogen compounds” (STEVENS INSTITUTE OF TECHNOLOGY, priority 2018, dated 2023)
Changes are numbered by the printed parent chain.

Columns and labels:
Experiment in all cases: Luciferase assay, overexpressed ER (3×-ERE-TATA-Luciferase reporter)
Format in all cases: cell-based
HA-ERα D538G = biological target: T1, HA-ERα D538G (Homo sapiens, UniProt P03372, D538G); conditions: compound concentration 1 μM, 24 hours
T1 construct: HA; expressed in transfected cells
T1 sequence (P03372 1-595 D538G): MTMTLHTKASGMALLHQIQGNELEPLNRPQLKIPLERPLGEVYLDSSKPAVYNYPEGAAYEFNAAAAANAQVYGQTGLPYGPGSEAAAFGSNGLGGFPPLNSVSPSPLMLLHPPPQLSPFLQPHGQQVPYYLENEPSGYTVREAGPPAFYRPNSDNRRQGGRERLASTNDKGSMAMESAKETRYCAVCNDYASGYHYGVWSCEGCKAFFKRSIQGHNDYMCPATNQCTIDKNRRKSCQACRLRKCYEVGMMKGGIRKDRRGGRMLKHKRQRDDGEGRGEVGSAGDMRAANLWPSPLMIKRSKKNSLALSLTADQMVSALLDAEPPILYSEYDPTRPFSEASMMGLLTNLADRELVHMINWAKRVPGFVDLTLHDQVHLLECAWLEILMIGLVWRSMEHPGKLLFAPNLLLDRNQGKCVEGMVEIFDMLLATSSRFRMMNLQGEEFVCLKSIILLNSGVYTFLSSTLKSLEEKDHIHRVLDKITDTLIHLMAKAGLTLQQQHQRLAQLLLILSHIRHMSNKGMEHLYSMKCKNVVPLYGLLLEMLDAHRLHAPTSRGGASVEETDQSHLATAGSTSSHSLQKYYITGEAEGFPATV
Protocol: (§1) Luciferase assays were performed to determine the efficacy of the example compounds at inhibiting ER or its mutants' ability to activate transcription of genes.
(§2) Cells were plated at a density of 0.15×10^6 per well of 24 well plates one day prior to transfection. Cells were transfected with 125 ng (per well) of HA-ERα wild type or mutants, 315 ng (per well) of 3×-ERE-TATA-Luciferase reporter and 50 ng (per well) of pRL-TK Renilla Luciferase plasmid, using Xtremegene (Roche). The cells were treated with the various compounds or Fulvestrant at the indicated doses a day after transfection for 24 hours and luciferase activities were determined using the Dual-Luciferase® Reporter Assay System (Promega) according to manufacturer's instructions. Luciferase bioluminescence measurements were performed with the Veritas™ Microplate Luminometer (Promega). All experiments were conducted in triplicate and the Firefly luciferase activity was normalized with the Renilla luciferase activity of each sample.

HA-ERα Y537S = biological target: T2, HA-ERα Y537S (Homo sapiens, UniProt P03372, Y537S); conditions: compound concentration 1 μM, 24 hours
T2 construct: HA; expressed in transfected cells
T2 sequence (P03372 1-595 Y537S): T1 sequence (P03372 1-595 D538G) with Y537S, G538D
Protocol: as §1, §2

HA-ERα L536R = biological target: T3, HA-ERα L536R (Homo sapiens, UniProt P03372, L536R); conditions: compound concentration 1 μM, 24 hours
T3 construct: HA; expressed in transfected cells
T3 sequence (P03372 1-595 L536R): T1 sequence (P03372 1-595 D538G) with L536R, G538D
Protocol: as §1, §2

HA-ERα wild type = biological target: T4, HA-ERα wild type (Homo sapiens, UniProt P03372); conditions: compound concentration 1 μM, 24 hours; read-out: Overexpressed ER (% Inhibition) WT
T4 construct: HA; expressed in transfected cells
T4 sequence (P03372 1-595): T1 sequence (P03372 1-595 D538G) with G538D
Protocol: as §1, §2

Row | inhibition at 1 µM (HA-ERα D538G) | inhibition at 1 µM (HA-ERα Y537S) | inhibition at 1 µM (HA-ERα L536R) | inhibition at 1 µM (HA-ERα wild type) | SMILES
1 | 93% | -51% | 82% | 85% | O=C(COc1cccc2c1C(=O)N(C1CCC(=O)NC1=O)C2=O)NCCCCOc1ccc(C(=C2C3CC4CC(C3)CC2C4)c2ccc(O)cc2)cc1 (stereo not drawn) [Example 15, N-(4-(4-(Adamantan-2-ylidene(4-hydroxyphenyl)methyl)phenoxy)butyl)-2-((2-(2,6-dioxopiperidin-3-yl)-1,3-dioxoisoindolin-4-yl)oxy)acetamide]
2 | 61% | -65% | 64% | 81% | O=C(COc1cccc2c1C(=O)N(C1CCC(=O)NC1=O)C2=O)NCCCCCCOc1ccc(C(=C2C3CC4CC(C3)CC2C4)c2ccc(O)cc2)cc1 (stereo not drawn) [Example 16, N-(6-(4-(Adamantan-2-ylidene(4-hydroxyphenyl)methyl)phenoxy)hexyl)-2-((2-(2,6-dioxopiperidin-3-yl)-1,3-dioxoisoindolin-4-yl)oxy)acetamide]
3 | 86% | -75% | 84% | 80% | O=C1CCC(N2C(=O)c3cccc(OCCOCCOCCOc4ccc(C(=C5C6CC7CC(C6)CC5C7)c5ccc(O)cc5)cc4)c3C2=O)C(=O)N1 (stereo not drawn) [Example 18, 4-(2-(2-(2-(4-(Adamantan-2-ylidene(4-hydroxyphenyl)methyl)phenoxy)-ethoxy)ethoxy)ethoxy)-2-(2,6-dioxopiperidin-3-yl)isoindoline-1,3-dione]
4 | 90% | -136% | 83% | 82% | O=C1CCC(N2C(=O)c3cccc(OCCOCCOc4ccc(C(=C5C6CC7CC(C6)CC5C7)c5ccc(O)cc5)cc4)c3C2=O)C(=O)N1 (stereo not drawn) [Example 19, 4-(2-(2-(4-(Adamantan-2-ylidene(4-hydroxyphenyl)methyl)phenoxy)-ethoxy)ethoxy)-2-(2,6-dioxopiperidin-3-yl)isoindoline-1,3-dione]
5 |  |  |  | 83% | Cc1c(-c2ccc(O)cc2)n(Cc2ccc(OCCCCNC(=O)[C@H]3CC[C@H](C(F)(F)F)CC3)cc2)c2ccc(O)cc12 [Example 20, (trans)-N-(4-(4-((5-Hydroxy-2-(4-hydroxyphenyl)-3-methyl-1H-indol-1-yl)methyl)phenoxy)butyl)-4-(trifluoromethyl)cyclohexanecarboxamide]
6 |  |  |  | 82% | Cc1c(-c2ccc(O)cc2)n(Cc2ccc(OCCCCNC(=O)C34CC5CC(CC(C5)C3)C4)cc2)c2ccc(O)cc12 [Example 21, N-(4-(4-((5-Hydroxy-2-(4-hydroxyphenyl)-3-methyl-1H-indol-1-yl)methyl)phenoxy)butyl)adamantane-1-carboxamide]
7 |  |  |  | -130% | O=C(NCCCCOc1ccc(C2c3ccc(O)cc3CCC2c2ccccc2)cc1)[C@H]1CC[C@H](C(F)(F)F)CC1 (stereo partly drawn) [Example 22, (trans)-N-(4-(4-(6-Hydroxy-2-phenyl-1,2,3,4-tetrahydronaphthalen-1-yl)phenoxy)butyl)-4-(trifluoromethyl)cyclohexanecarboxamide]
8 | 0% | -169% | 43% | -25% | O=C(NCCCCOc1ccc(C(=C2CCCCC2)c2ccc(O)cc2)cc1)C1CCCCC1 [Example 23, N-(4-(4-(Cyclohexylidene(4-hydroxyphenyl)methyl)phenoxy)butyl)-cyclohexanecarboxamide]
9 | -7% | -160% | -75% | -83% | O=C(NCCCCOc1ccc(C(=C2CCCCC2)c2ccc(O)cc2)cc1)C1CCC1 [Example 24, N-(4-(4-(Cyclohexylidene(4-hydroxyphenyl)methyl)phenoxy)-butyl)cyclobutanecarboxamide]
10 | 42% | -39% | 36% | 77% | O=C(NCCCCOc1ccc(C(=C2CCCCC2)c2ccc(O)cc2)cc1)[C@H]1CC[C@H](C(F)(F)F)CC1 [Example 25, (trans)-N-(4-(4-(Cyclohexylidene(4-hydroxyphenyl)methyl)phenoxy)butyl)-4-(trifluoromethyl)cyclohexanecarboxamide]
11 |  |  |  | 61% | O=C(CCC1CCCCC1)NCCCCOc1ccc(Oc2c(-c3ccc(O)cc3)sc3cc(O)ccc23)cc1 [Example 30, 3-Cyclohexyl-N-(4-(4-((6-hydroxy-2-(4-hydroxyphenyl)benzo[b]thiophen-3-yl)oxy)phenoxy)butyl)propanamide]
12 |  |  |  | 36% | O=C(NCCCCOc1ccc(C(=C2C3CC4CC(C3)CC2C4)c2ccc(O)cc2)cc1)C1CC1 [Example 31, N-(4-(4-(Adamantan-2-ylidene(4-hydroxyphenyl)methyl)phenoxy)butyl)cyclopropanecarboxamide]
13 |  |  |  | 48% | O=C(NCCCCOc1ccc(C(=C2C3CC4CC(C3)CC2C4)c2ccc(O)cc2)cc1)C1CC1(F)F (stereo not drawn) [Example 32, N-(4-(4-(Adamantan-2-ylidene(4-hydroxyphenyl)methyl)phenoxy)butyl)-2,2-difluorocyclopropanecarboxamide]
14 |  |  |  | 79% | O=C(NCCCCOc1ccc(C(=C2C3CC4CC(C3)CC2C4)c2ccc(O)cc2)cc1)c1ccc(C(F)(F)F)cc1 [Example 33, N-(4-(4-(Adamantan-2-ylidene(4-hydroxyphenyl)methyl)phenoxy)butyl)-4-(trifluoromethyl)benzamide]
15 |  |  |  | 65% | O=C(CCC1CCCCC1)NCCCCOc1ccc(C(=C2C3CC4CC(C3)CC2C4)c2ccc(O)cc2)cc1 [Example 34, N-(4-(4-(Adamantan-2-ylidene(4-hydroxyphenyl)methyl)phenoxy)butyl)-3-cyclohexylpropanamide]
